Where two headings read alike, the source gives them in different places. No end group written: not given here.
How the values were obtained:
Test in all cases: biochemical
Type in all cases: binding
HLA-DR DRB1*1302 (DR13) = HLA-DR DRB1*1302 (DR13) (Homo sapiens, UniProt P01903+P01911, A100E/A169T/K41T/L162R/M171V/P40S/Q125H/Q178H/Q39Y/Q99D/R42S/S66N/T262R/V115G/W38E/Y61H)
HLA-DR DRB1*1101 (DR11) = HLA-DR DRB1*1101 (DR11) (Homo sapiens, UniProt P01903+P01911, A100R/A169T/A87E/I96F/K41T/L162R/M171V/P40S/Q125H/Q178H/Q39Y/Q99D/R42S/S66Y/T262R/V115G/W38E)
HLA-DR DRB5*0101 (DR51) = HLA-DR DRB5*0101 (DR51) (Homo sapiens, UniProt P01903+Q30154)
HLA-DR DRB1*1501 (DR15) = HLA-DR DRB1*1501 (DR15) (Homo sapiens, UniProt P01903+P01911)
HLA-DR DRB1*0401 (DR4) = HLA-DR DRB1*0401 (DR4) (Homo sapiens, UniProt P01903+P01911, A100K/A169T/F76Y/I96L/K127E/L162R/M171V/N62H/P40V/Q125Y/R42H/S133A/S149N/S66Y/V115G/V209L/W38E)
HLA-DR DRB4*0101 (DR53) = HLA-DR DRB4*0101 (DR53) (Homo sapiens, UniProt P01903+P13762, G164S)
HLA-DR DRB1*0101 (DR1) = HLA-DR DRB1*0101 (DR1) (Homo sapiens, UniProt P01903+P01911, A100R/D57E/F55L/F60I/F76Y/I96L/L162R/M171V/P40L/Q125E/R42F/V115G/Y59C)
HLA-DR DRB1*0701 (DR7) = HLA-DR DRB1*0701 (DR7) (Homo sapiens, UniProt P01903+P01911, A100R/A102G/A103Q/D57E/D86V/E43K/F76Y/K127E/L162R/M171V/P40G/Q125H/Q99D/R33Q/R42Y/R54Q/S133A/S66F/T210M/V115G/Y107V/Y59L/Y89S)
HLA-DR DRB1*0301 (DR3) = HLA-DR DRB1*0301 (DR3) (Homo sapiens, UniProt P01903+P01911, A100K/A102G/A103R/A169T/F55Y/I96L/K41T/L162R/M171V/P40S/Q125H/Q178H/Q39Y/R42S/S66N/T106N/T262R/W38E/Y61H)
Chain of HLA-DR DRB1*0301 (DR3) (P01903 26-254 limits assumed, other chains not shown): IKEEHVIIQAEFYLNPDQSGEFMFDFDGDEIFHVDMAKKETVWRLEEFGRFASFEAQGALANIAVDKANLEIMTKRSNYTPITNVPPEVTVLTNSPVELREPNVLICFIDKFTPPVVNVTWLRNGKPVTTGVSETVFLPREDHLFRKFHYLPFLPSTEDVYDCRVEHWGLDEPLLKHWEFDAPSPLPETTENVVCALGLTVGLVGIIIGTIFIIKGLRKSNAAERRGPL

Chain of HLA-DR DRB1*1101 (DR11) (P01903 26-254 limits assumed, other chains not shown): as above
Chain of HLA-DR DRB1*1302 (DR13) (P01903 26-254 limits assumed, other chains not shown): as above

EFAFKDLFVVYRDSI
IC50 (HLA-DR DRB1*1302 (DR13); read-out: DRBI *1302): 10000 nM | IC50 (HLA-DR DRB1*1101 (DR11); read-out: DRB1 *1101): 9500 nM | IC50 (HLA-DR DRB5*0101 (DR51); read-out: DRB5 *0101): 6000 nM | IC50 (HLA-DR DRB1*1501 (DR15); read-out: DRBI *1501): 5360 nM

VRTLQQLLMGTCTIV
IC50 (HLA-DR DRB1*1302 (DR13); read-out: DRBI *1302): 37 nM | IC50 (HLA-DR DRB5*0101 (DR51); read-out: DRB5 *0101): > 15300 nM | IC50 (HLA-DR DRB1*1501 (DR15); read-out: DRBI *1501): 1830 nM

LSFFLKEKGGLDGLI
IC50 (HLA-DR DRB1*1302 (DR13); read-out: DRBI *1302): > 12000 nM | IC50 (HLA-DR DRB1*1101 (DR11); read-out: DRB1 *1101): 614 nM | IC50 (HLA-DR DRB1*1501 (DR15); read-out: DRBI *1501): > 39700 nM

EYLILSARDVLAVVS
IC50 (HLA-DR DRB1*0401 (DR4)): 508 nM | IC50 (HLA-DR DRB4*0101 (DR53); DRB4 *0101): 2530 nM | IC50 (HLA-DR DRB1*1101 (DR11)): 6860 nM | IC50 (HLA-DR DRB5*0101 (DR51)): 4150 nM | IC50 (HLA-DR DRB1*1501 (DR15)): 2340 nM

SHDLMLLRISEPAEL
IC50 (HLA-DR DRB1*1302 (DR13); read-out: DRBI *1302): 5.8 nM | IC50 (HLA-DR DRB4*0101 (DR53); read-out: DRB4 *0101): 12 nM | IC50 (HLA-DR DRB5*0101 (DR51); read-out: DRB5 *0101): ≥ 100000 nM | IC50 (HLA-DR DRB1*1501 (DR15); read-out: DRBI *1501): 1100 nM

YAR(15)ASQTTLKAKT
IC50 (HLA-DR DRB1*0101 (DR1); read-out: DRB1 *0101): 1.5 nM | IC50 (HLA-DR DRB1*0401 (DR4); read-out: DRB1 *0401): 0.46 nM | IC50 (HLA-DR DRB1*0701 (DR7); read-out: DRB1 *0701): 1200 nM | IC50 (HLA-DR DRB1*1101 (DR11); read-out: DRB1 *1101): 3.9 nM | IC50 (HLA-DR DRB5*0101 (DR51); read-out: DRB5 *0101): 3.6 nM

LSHFLKEKGGLEGLI
IC50 (HLA-DR DRB1*1302 (DR13); read-out: DRBI *1302): > 12000 nM | IC50 (HLA-DR DRB4*0101 (DR53); read-out: DRB4 *0101): 18700 nM | IC50 (HLA-DR DRB1*1101 (DR11); read-out: DRB1 *1101): 9460 nM | IC50 (HLA-DR DRB5*0101 (DR51); read-out: DRB5 *0101): > 20500 nM | IC50 (HLA-DR DRB1*1501 (DR15); read-out: DRBI *1501): > 39700 nM

LREYILDLHPEPTDL
IC50 (HLA-DR DRB1*1101 (DR11); read-out: DRB1 *1101): 9830 nM | IC50 (HLA-DR DRB5*0101 (DR51); read-out: DRB5 *0101): > 40400 nM

RGGMVFELANSIVLP
IC50 (HLA-DR DRB1*1302 (DR13); read-out: DRBI *1302): 4.4 nM | IC50 (HLA-DR DRB4*0101 (DR53); read-out: DRB4 *0101): 411 nM | IC50 (HLA-DR DRB1*1101 (DR11); read-out: DRB1 *1101): > 50000 nM | IC50 (HLA-DR DRB5*0101 (DR51); read-out: DRB5 *0101): 413 nM | IC50 (HLA-DR DRB1*1501 (DR15); read-out: DRBI *1501): 94 nM

AALAAAAAAKAAA
IC50 (HLA-DR DRB1*0101 (DR1); read-out: DRB1 *0101): 1.9 nM | IC50 (HLA-DR DRB1*0401 (DR4); read-out: DRB1 *0401): 12 nM | IC50 (HLA-DR DRB1*1101 (DR11); read-out: DRB1 *1101): 2220 nM | IC50 (HLA-DR DRB5*0101 (DR51); read-out: DRB5 *0101): 67 nM

YSYFPSIR
IC50 (HLA-DR DRB1*0101 (DR1); DRB1 *0101): ≥ 50000 nM | IC50 (HLA-DR DRB1*0701 (DR7); DRB1 *0701): 7220 nM | IC50 (HLA-DR DRB1*1101 (DR11); DRB1 *1101): 20000 nM | IC50 (HLA-DR DRB5*0101 (DR51); DRB5 *0101): > 200000 nM | IC50 (HLA-DR DRB1*0301 (DR3)): > 900000 nM

SKIMKLPKLPISNGK
IC50 (HLA-DR DRB1*1302 (DR13); DRBI *1302): 6460 nM | IC50 (HLA-DR DRB4*0101 (DR53); DRB4 *0101): 6740 nM | IC50 (HLA-DR DRB5*0101 (DR51); DRB5 *0101): > 10300 nM | IC50 (HLA-DR DRB1*1501 (DR15); DRBI *1501): 3570 nM

ALVRQGLAKVA
IC50 (HLA-DR DRB1*0401 (DR4); DRB1 *0401): 190 nM | IC50 (HLA-DR DRB1*1101 (DR11); DRB1 *1101): ≥ 200000 nM | IC50 (HLA-DR DRB5*0101 (DR51); DRB5 *0101): > 10000 nM

YIVMSDWTGGA
IC50 (HLA-DR DRB1*0301 (DR3)): 13400 nM

DRTLMSAMTNLAALE
IC50 (HLA-DR DRB1*0101 (DR1); read-out: DRB1 *0101): 97 nM | IC50 (HLA-DR DRB1*0401 (DR4); read-out: DRB1 *0401): 13 nM | IC50 (HLA-DR DRB1*0701 (DR7); read-out: DRB1 *0701): 383 nM | IC50 (HLA-DR DRB1*0301 (DR3); read-out: DRB1 *0301): 64300 nM

QKKYIYNLIMNTQNK
IC50 (HLA-DR DRB1*0101 (DR1); DRB1 *0101): 73 nM | IC50 (HLA-DR DRB1*1302 (DR13); DRBI *1302): 53 nM | IC50 (HLA-DR DRB1*0401 (DR4); DRB1 *0401): 24 nM | IC50 (HLA-DR DRB4*0101 (DR53); DRB4 *0101): 87 nM | IC50 (HLA-DR DRB1*0701 (DR7); DRB1 *0701): 11900 nM | IC50 (HLA-DR DRB1*1501 (DR15); DRBI *1501): 844 nM

Source: patent US20060079453A1, “Hla binding peptides and their uses” (priority 2002, published 2006)
